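These data come from cells grown in 96-well plates and exposed to compound for 48 hours at five concentrations. TGI denotes the concentration required for complete inhibition of growth.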
Key:
Test in all cases: NCI-60 cell line screen, 48 h
UACC-62 melanoma = test system: UACC-62 melanoma
BT-549 breast = test system: BT-549 breast
OVCAR-4 ovarian = test system: OVCAR-4 ovarian
UACC-257 melanoma = test system: UACC-257 melanoma
ACHN renal = test system: ACHN renal
NCI-H522 lung = test system: NCI-H522 lung
CCRF-CEM leukemia = test system: CCRF-CEM leukemia
EKVX NSCLC = test system: EKVX NSCLC
HS 578T breast = test system: HS 578T breast
A498 renal = test system: A498 renal
HOP-92 NSCLC = test system: HOP-92 NSCLC
OVCAR-8 ovarian = test system: OVCAR-8 ovarian
MDA-N = test system: MDA-N
SK-MEL-28 melanoma = test system: SK-MEL-28 melanoma
U251 CNS = test system: U251 CNS
K-562 leukemia = test system: K-562 leukemia
NCI-H460 lung = test system: NCI-H460 lung
CAKI-1 renal = test system: CAKI-1 renal
HCT-15 colon = test system: HCT-15 colon
NCI/ADR-RES ovarian = test system: NCI/ADR-RES ovarian
A549 NSCLC = test system: A549 NSCLC
TK-10 renal = test system: TK-10 renal
UO-31 renal = test system: UO-31 renal
SN12C renal = test system: SN12C renal
OVCAR-3 ovarian = test system: OVCAR-3 ovarian
SR leukemia = test system: SR leukemia
HCT-116 colon = test system: HCT-116 colon
NCI-H226 lung = test system: NCI-H226 lung
HT29 colon = test system: HT29 colon
HCC-2998 colon = test system: HCC-2998 colon
KM12 colon = test system: KM12 colon
SF-295 CNS = test system: SF-295 CNS
786-0 renal = test system: 786-0 renal
SNB-19 CNS = test system: SNB-19 CNS
MDA-MB-435 = test system: MDA-MB-435
T-47D breast = test system: T-47D breast
SNB-75 CNS = test system: SNB-75 CNS
RXF 393 renal = test system: RXF 393 renal
NCI-H23 lung = test system: NCI-H23 lung
SK-MEL-5 melanoma = test system: SK-MEL-5 melanoma
IGROV1 ovarian = test system: IGROV1 ovarian
MDA-MB-231 breast = test system: MDA-MB-231 breast
MOLT-4 leukemia = test system: MOLT-4 leukemia
SK-MEL-2 melanoma = test system: SK-MEL-2 melanoma
SF-268 CNS = test system: SF-268 CNS
PC-3 prostate = test system: PC-3 prostate
DU-145 prostate = test system: DU-145 prostate
M14 melanoma = test system: M14 melanoma
MALME-3M melanoma = test system: MALME-3M melanoma
OVCAR-5 ovarian = test system: OVCAR-5 ovarian
LOX IMVI melanoma = test system: LOX IMVI melanoma
HOP-62 NSCLC = test system: HOP-62 NSCLC
SW-620 colon = test system: SW-620 colon
MCF7 breast = test system: MCF7 breast
HL-60(TB) leukemia = test system: HL-60(TB) leukemia
SK-OV-3 ovarian = test system: SK-OV-3 ovarian
COLO 205 colon = test system: COLO 205 colon
SF-539 CNS = test system: SF-539 CNS
RPMI-8226 leukemia = test system: RPMI-8226 leukemia

Measured: TGI

CC(C)=CC1C(C(=O)OCc2cc3c(cc2Cl)OCO3)C1(C)C (stereo not drawn)
80 µM: EKVX NSCLC
31.5 µM: MOLT-4 leukemia
87.5 µM: IGROV1 ovarian
44.2 µM: NCI-H522 lung
35.1 µM: U251 CNS
49 µM: MALME-3M melanoma
48.1 µM: UACC-257 melanoma
33.4 µM: SR leukemia
36 µM: PC-3 prostate
33.5 µM: LOX IMVI melanoma
23.1 µM: SK-MEL-2 melanoma
86.6 µM: MDA-MB-231 breast
34.2 µM: SK-MEL-5 melanoma
81.5 µM: MDA-N
58 µM: HCC-2998 colon
not listed: MCF7 breast | HL-60(TB) leukemia | SK-OV-3 ovarian | COLO 205 colon | SF-539 CNS | RPMI-8226 leukemia
> 100 µM: all other assays above

COC(=O)c1c(O)ccc2c1c1c(n2Cc2ccc(OC)cc2)C(=O)c2ccccc2C1
31.5 µM: RPMI-8226 leukemia
34.4 µM: COLO 205 colon
59.5 µM: PC-3 prostate
79.9 µM: RXF 393 renal
47.4 µM: HT29 colon
74.1 µM: CAKI-1 renal
93.3 µM: SN12C renal
89.4 µM: CCRF-CEM leukemia
not listed: ACHN renal | NCI-H522 lung | EKVX NSCLC | HOP-92 NSCLC | HCC-2998 colon | T-47D breast | OVCAR-5 ovarian
> 100 µM: all other assays above

Cc1cc(OC2OC(CO)C(O)C(O)C2O)ccc1O (stereo not drawn)
not listed: SR leukemia | NCI-H226 lung | DU-145 prostate
> 100 µM: all other assays above

O=[N+]([O-])/C=C/c1cc(Cl)c(/C=C/[N+](=O)[O-])cc1Cl
4.5 µM: COLO 205 colon
52.9 µM: NCI-H460 lung
36.1 µM: A549 NSCLC
31.8 µM: HOP-62 NSCLC
5.4 µM: NCI-H226 lung
5.02 µM: EKVX NSCLC
4.34 µM: UACC-62 melanoma
6.06 µM: SW-620 colon
14.2 µM: A498 renal
8.62 µM: IGROV1 ovarian
3.99 µM: HCC-2998 colon | RPMI-8226 leukemia
8.25 µM: HS 578T breast
7.96 µM: DU-145 prostate
8.19 µM: MDA-N
> 100 µM: CCRF-CEM leukemia
4.17 µM: MDA-MB-435
2.97 µM: ACHN renal
16.5 µM: SF-268 CNS
5.78 µM: HT29 colon
> 33.2 µM: MCF7 breast
4.19 µM: HCT-15 colon
2.99 µM: LOX IMVI melanoma
14.9 µM: SK-MEL-5 melanoma
> 56.6 µM: SK-OV-3 ovarian
6.38 µM: T-47D breast
4.37 µM: M14 melanoma
2.9 µM: TK-10 renal
25 µM: SF-295 CNS
3.25 µM: BT-549 breast
12.8 µM: SK-MEL-2 melanoma
5.04 µM: OVCAR-3 ovarian
29.6 µM: SNB-75 CNS
9.15 µM: PC-3 prostate
7.1 µM: HCT-116 colon
5.25 µM: UACC-257 melanoma
22.5 µM: NCI-H23 lung
6.77 µM: HOP-92 NSCLC
6.91 µM: SNB-19 CNS
> 24.6 µM: KM12 colon
3.14 µM: RXF 393 renal
> 25 µM: NCI/ADR-RES ovarian

From PubChem BioAssay (NCI)
